Test results from US20240279711A1, “MARKER FOR DNA DAMAGE IN PROXIMITY OF TRANSCRIBED GENOMIC LOCI AND METHODS FOR IDENTIFYING AND/OR QUANTIFYING THESE DNA DAMAGES” (FONDAZIONE ISTITUTO ITALIANO DI TECNOLOGIA, priority 2021, published 2024).

Experiments:
Assay type in all cases: cell-based
[1] = tested on: mCherry-CDK12 recruitment at endogenous DDR sites in RPE-iCUT cells; experiment: CDK12 recruitment to CRISPR-Cas9 induced DSBs at endogenous loci; details: DSBs 1 kb and 2 kb upstream of TSS of POLRIB, IFRD2, MCM2, DRB 100 uM, 3 hours before harvesting
Procedure: RPE iCUT cells, stably expressing inducible CRISPER-Cas9, were transfected with mCherry-CDK12. Cas9 was activated by doxycycline and SHIELD-1 for 16 hours. […] 3 hours before harvesting, the cells were treated with DRB (100 uM). The bar graph reports the percentage of cells showing co-localisation of CDK12 and γH2A. X in the indicated genomic regions (mean of two independent experiments, 40 cells were considered for each region).
For the site-specific induction of a DSB at selected endogenous genomic loci, we used RPE-iCUT cells: immortalised retinal epithelial cells engineered for CRISPR-CAS9 expression and conditional activation. These cells were transfected with mCherry-CDK12 and a set of sgRNAs (Alt-R-gRNA) designed to induce DBS in three expressed genes (MCM2, IFRD2 and POLRIB), in two regions upstream of their site of transcriptional onset (TSS), or designed to induce DSB in two genomic regions distal to transcribed loci. The induction of DSBs by CRISPR-Cas9 was assessed by immunofluorescence of γH2A. X, while the recruitment of CDK12 to DNA-damaged sites was assessed by microscopy analysis of mCherry signals. […] As a control, DSBs induced in regions distal to transcribed loci show low levels of CDK12 recruitment (close to the background signal), which are not altered by RNA-pol2 inhibitors (FIG. 8).

[2] = tested on: mCherry-CDK12 recruitment at damaged DNA sites in U2OS cells; experiment: Laser micro-irradiation, time-lapse microscopy of mCherry-CDK12 recruitment to damaged DNA sites; details: for recruitment of mCherry-CDK12 at laser-damaged areas: 3 hours before laser micro-irradiation; for localisation of CDK12 at laser-damaged sites: 2 hours before laser microirradiation; for localisation of CDK12 at laser-damaged DNA sites: 1 hour before laser microirradiation
Procedure: FIGS. 6A and 6B show how the recruitment of CDK12 to DDR sites is transcription-dependent. U2OS cells, transfected with mCherry-CDK12 plasmid, were first treated with DRB (100 uM), Triptolide (1 uM) or DMSO (mock) for 3 hours and then micro-irradiated by laser. Selected regions within the nucleus were micro-irradiated with 10 iterations of a laser at 405 nm with 100% power. The cells were subjected to quantitative analysis using time-lapse microscopy.
U2OS cells were transfected with the mCherry-CDK12 encoding plasmid and treated with THZ531 (100 nM) or DMSO for 24 hours. The cells were previously treated with BrdU for 24 hours to sensitise the DNA to breaks by laser. To generate localised DNA damage, selected regions within the nucleus were micro-irradiated with 10 iterations of a laser at 405 nm with 100% power. The cells were then subjected to time-lapse microscopic analysis. For each condition, at least 30 cells were considered. FIG. 9A reports representative images used for the analysis shown in the graph of FIG. 9B.
U2OS cells were transfected with mCherry-CDK12 plasmid and pre-treated with KU-55933 (ATMi; 10 μM), VE-821 (ATRi; 10 µM) or DMSO (mock) for 2 hours prior to laser microirradiation. To generate localised DNA damage, selected regions within the nucleus were micro-irradiated with 10 iterations of a laser at 405 nm with 100% power. The cells were subjected to quantitative analysis by time-lapse microscopy. FIG. 10A: representative images used for the analysis shown in the graph in FIG. 10B.
FIGS. 11A and 11B show how CDK12 recruitment to DDR sites depends on PARP1 activity. U2OS cells were transfected with mCherry-CDK12 plasmid and pre-treated with Olaparib (1 µM), Veliparib (10 μM) or DMSO (mock) for 1 hour before laser microirradiation. To generate localised DNA damage, selected regions within the nucleus were micro-irradiated with 10 iterations of a laser at 405 nm with 100% power. The cells were then subjected to quantitative analysis by time-lapse microscopy.
U2OS cells were transfected with a vector encoding mCherry-CDK12. Cells were micro-irradiated with a laser beam to induce DNA breaks confined to appropriately selected nuclear areas.
In order to inhibit RNA-pol2, the cells were pre-treated with either (i) triptolide (a TFIIH inhibitor that blocks the start of transcriptional) or (ii) DRB (5,6-dichlorobenzimidazole riboside, a DSIF inhibitor that prevents transcriptional elongation).
U2OS cells were transfected with a vector encoding for mCherry-CDK12. Cells were micro-irradiated with a laser beam to induce DNA breaks confined to selected nuclear areas. In order to inhibit CDK12, the cells were pre-treated with THZ531, a covalent inhibitor of CDK12.
U2OS cells were transfected with a vector encoding for mCherry-CDK12. The cells were micro-irradiated with a laser beam to induce DNA breaks in selected nuclear areas. To inhibit the DDR response, the cells were pre-treated with an ATM inhibitor (KU-55933) or an ATR inhibitor (VE-821).
U2OS cells, transfected with a vector encoding for mCherry-CDK12, were micro-irradiated with a laser beam to induce DNA breaks confined to selected nuclear areas. To inhibit PARP1, the cells were pre-treated with Olaparib and Veliparib.

[3] = tested on: mCherry-CDK12 recruitment to programmed DSBs in U2OS-TRE-I-Sce1 cells; experiment: CDK12 recruitment to programmed Sce-1 DSB, co-localisation with γH2A.X; details: U2OS-TRE-I-SceI cells, doxycycline, 3 hours
Procedure: FIGS. 7A and 7B show how CDK12 recruitment at a DNA-damaged locus is transcriptionally dependent. U2OS-TRE-I-SceI cells were transfected with plasmid vectors encoding mCherry-CDK12, p-rtTA, YFP-MS2 or I-Sce1. The cells were treated with doxycycline, which is required for the induction of the rtTA transcription factor that activates the transcription of the MS2 reporter gene. RNA-pol2 activity was inhibited by DRB (100 uM) or TRIPTOLIDE (TPL, 1 uM) for 3 hours. The cells were fixed with 4% PFA for 15 minutes and immunostained for γH2A. X. The table in FIG. 7B reports the percentage of cells showing co-localisation between CDK12 and γH2A. X (mean of two experiments).
U2OS-TRE-I-Sce-1 cells were transfected with plasmids encoding (i) YFP-MS2 (a chimeric gene produced by the MS2 CDNA fused with the YFP cDNA), (ii) mCherry-CDK12 (a chimeric fusion of mCherry and CDK12), (iii) rtTA (a doxycycline-activated transcription factor) and (iv) the restriction enzyme Sce-1. Transcription was activated by the addition of doxycycline and monitored by detecting subcellular positive nuclear foci for YFP signal. Sce-1-induced DSBs were visualised by immunofluorescence staining specific for the phosphorylated form of histone H2Ax (γH2A. X), a marker for DNA break detection and DNA damage response (DDR) signalling pathway activation. […]

[4] = tested on: MS2 reporter transcription in U2OS-TRE-I-Sce1 cells; experiment: MS2 reporter gene transcription at damaged locus (YFP-MS2 / pCherry-tTA-ER co-localisation); details: +SceI, OHT, THZ531 for 24 h
From the text: The fixed cells were processed to detect the γH2A. X signal by immunofluorescence. […] U2OS-TRE-I-Sce1 cells were transfected with plasmids encoding (i) YFP-MS2 (a chimeric gene produced from MS2 cDNA fused with YFP cDNA), (ii) mCherry-tTA-ER and (iii) the restriction enzyme Sce-1. Transcription was activated by addition of OHT and monitored by detecting positive nuclear foci for YFP signal. Sce1-induced DSBs were visualised by immunofluorescence staining of the phosphorylated form of the histone H2Ax (γH2A. X), a marker for DNA break detection and DNA damage response (DDR) signalling pathway activation.

Which “CDK12 recruitment to DDR foci proximal to promoters” value [1] does the source give for `OC[C@H]1O[C@@H](n2cnc3cc(Cl)c(Cl)cc32)[C@H](O)[C@@H]1O` [DRB, 5,6-dichlorobenzimidazole riboside] here?
Its value is “reduced its recruitment to damaged foci”.

And the “recruitment of mCherry-CDK12 at laser-damaged areas” value ([2]; DRB 100 uM)?
Its value is “prevents the recruitment of mCherry-CDK12 at damaged areas”.

What about the “recruitment of mCherry-CDK12 at Sce-1 damaged locus” value ([3]; DRB 100 uM) of the same compound?
Its value is “prevents the recruitment of mCherry-CDK12 at damaged areas”.

For `O=c1cc(-c2cccc3c2Sc2ccccc2S3)oc(N2CCOCC2)c1` [KU-55933], which “localisation of CDK12 at laser-damaged sites” value ([2]; KU-55933 (ATMi) 10 μM) is on record?
The value was “Neither of the two inhibitor affected the localisation of CDK12 at the damaged sites”.

Which “localisation of CDK12 at laser-damaged DNA sites” value ([2]; Olaparib 1 µM) does the source give for `O=C(c1cc(Cc2n[nH]c(=O)c3ccccc23)ccc1F)N1CCN(C(=O)C2CC2)CC1` [Olaparib] here?
The value was “inhibited the localisation of CDK12 at damaged DNA sites”.

Which results are given for `CN(C)C/C=C/C(=O)Nc1ccc(C(=O)N2CCC[C@@H](Nc3ncc(Cl)c(-c4c[nH]c5ccccc45)n3)C2)cc1` [THZ531]?
recruitment of CDK12 at DDR foci (laser) ([2]; THZ531 100 nM, 24 hours, BrdU pre-sensitised): did not affect the recruitment of CDK12 at DDR foci; MS2 reporter expression at damaged locus [4]: reactivated MS2 reporter expression

`CS(=O)(=O)c1ccc(-c2cnc(N)c(C(=O)Nc3ccccc3)n2)cc1` [VE-821] was tested. Which “localisation of CDK12 at laser-damaged sites” value ([2]; VE-821 (ATRi) 10 µM) did it give?
Its value is “Neither of the two inhibitor affected the localisation of CDK12 at the damaged sites”.

With `C[C@]1(c2nc3c(C(N)=O)cccc3[nH]2)CCCN1` [Veliparib] as the compound, how does the “localisation of CDK12 at laser-damaged DNA sites” value ([2]; Veliparib 10 μM) read?
Its value is “inhibited the localisation of CDK12 at damaged DNA sites”.

Which results are given for `CC(C)[C@]12O[C@H]1[C@@H]1O[C@]13[C@]1(O[C@H]1C[C@H]1C4=C(CC[C@@]13C)C(=O)OC4)[C@@H]2O` [triptolide]?
recruitment of mCherry-CDK12 at laser-damaged areas ([2]; Triptolide 1 uM): prevents the recruitment of mCherry-CDK12 at damaged areas; recruitment of mCherry-CDK12 at Sce-1 damaged locus ([3]; TRIPTOLIDE 1 uM): prevents the recruitment of mCherry-CDK12 at damaged areas
